# Test results reported in ChEMBL document CHEMBL4196086, “Recent advances of imidazole-containing derivatives as anti-tubercular agents” (Eur J Med Chem, 2018).
# How the values were obtained:
# [1] = Inhibition of Mycobacterium tuberculosis IMPDH
# [2] = test system: Mycobacterium tuberculosis; assay: Antimycobacterial activity against Mycobacterium tuberculosis H37Rv; type: functional; conditions: Mycobacterium tuberculosis, H37Rv
# [3] = test system: Mycobacterium tuberculosis; assay: Growth inhibition of Mycobacterium tuberculosis H37Rv at 100 ug/ml relative to control; type: functional; conditions: read-out: GI
# [4] = test system: Mycobacterium tuberculosis; assay: Antimycobacterial activity against non-replicating Mycobacterium tuberculosis; type: functional
# [5] = test system: Mycobacterium tuberculosis; assay: Potency index, ratio of pyrazinamide MIC to compound MIC for Mycobacterium tuberculosis H37Rv; type: functional
# [6] = test system: Mycobacterium tuberculosis; assay: Potency index, ratio of isoniazid MIC to compound MIC for Mycobacterium tuberculosis H37Rv; type: functional
# [7] = test system: Mycobacterium tuberculosis; assay: Antimycobacterial activity against Mycobacterium tuberculosis H37Rv after 5 days by MABA; type: functional; conditions: 120 h
# [8] = test system: Mycobacterium tuberculosis; assay: Potency index, ratio of streptomycin MIC to compound MIC for Mycobacterium tuberculosis H37Rv; type: functional
# [9] = test system: Mycobacterium tuberculosis; assay: Potency index, ratio of ciprofloxacin MIC to compound MIC for Mycobacterium tuberculosis H37Rv; type: functional
# [10] = test system: HEK293; assay: Cytotoxicity against HEK293 cells after 24 hrs by MTT assay; type: cell-based; conditions: Homo sapiens, HEK293, 24 h
# [11] = test system: Mycobacterium tuberculosis; assay: Antimycobacterial activity against Mycobacterium tuberculosis H37Rv ATCC 27294 by MABA; type: functional
# [12] = Selectivity index, ratio of IC50 for African green monkey Vero cells to MIC for Mycobacterium tuberculosis H37Rv ATCC 27294; type: toxicity; conditions: read-out: Selectivity Index
# [13] = test system: Mycobacterium tuberculosis; assay: Antimycobacterial activity against Mycobacterium tuberculosis H37Rv ATCC 27294 by serial dilution assay; type: functional
# [14] = test system: Mycobacterium tuberculosis; assay: Antimycobacterial activity against Mycobacterium tuberculosis H37Rv in logarithmic phase; type: functional
# [15] = test system: Mycobacterium tuberculosis; assay: Antimycobacterial activity against Mycobacterium tuberculosis H37Rv in hypoxia-induced latent phase; type: functional
# [16] = test system: Mycobacterium tuberculosis; assay: Antimycobacterial activity against Mycobacterium tuberculosis; type: functional
smiles,measurement,setting,value
O=C(Cn1c(-c2cscn2)nc2ccccc21)Nc1ccccc1,IC50,[1],3 to 10 µM
Fc1cc2nc(Cn3ccnc3)[nH]c2cc1Oc1ccc(Cl)cc1,MIC,[2],12.5 to 100 µg/mL
Clc1ccc2c(c1)cc(-c1nc(-c3ccccc3)c(-c3ccccc3)n1-c1ccccc1)c1nnnn12,inhibition of growth at 100 µg/mL,[3],17 to 99%
c1ccc(-c2nc(-c3cc4ccccc4n4nnnc34)n(-c3ccccc3)c2-c2ccccc2)cc1,inhibition of growth at 100 µg/mL,[3],17 to 99%
CCc1nc2ccc(C)cc2n1CCCCNc1ccc(OCc2ccccc2)cc1,MIC,[4],0.056 to 2.6 µM
CCc1nc2ccc(C)cc2n1CCCCSc1ccc(Cl)cc1,MIC,[4],0.056 to 2.6 µM
O=C(Cn1c(-c2cscn2)nc2ccccc21)Nc1ccc(F)cc1,IC50,[1],3 to 10 µM
CCc1nc2ccc(C)cc2n1CCCCOc1ccccc1,MIC,[4],0.056 to 2.6 µM
Cc1ccc2c(c1)cc(-c1nc(-c3ccccc3)c(-c3ccccc3)n1-c1ccccc1)c1nnnn12,inhibition of growth at 100 µg/mL,[3],17 to 99%
COc1ccc2c(c1)cc(-c1nc(-c3ccccc3)c(-c3ccccc3)n1-c1ccccc1)c1nnnn12,inhibition of growth at 100 µg/mL,[3],17 to 99%
Cn1c(-c2cccc(Cl)c2Cl)nc2cc(-c3nc(-c4ccc(Cl)cc4)no3)ccc21,Ratio,[5],2
same,Ratio,[6],4
same,MIC,[7],1.6 to 25 µg/mL
same,Ratio,[8],4
same,Ratio,[9],2
same,IC50,[10],> 500 µg/mL
CCCS(=O)(=O)c1nnc(-c2ncc([N+](=O)[O-])[nH]2)s1,MIC,[11],> 6.25 µg/mL
same,selectivity ratio,[12],0.3 to 0.6
CCCSc1nnc(-c2ncc([N+](=O)[O-])[nH]2)s1,MIC,[11],3.13 to 6.25 µg/mL
same,selectivity ratio,[12],0.3 to 0.6
CSc1nnc(-c2ncc([N+](=O)[O-])[nH]2)s1,MIC,[11],3.13 to 6.25 µg/mL
COc1ccc(-n2c(-c3cc4cc(C)ccc4n4nnnc34)nc(-c3ccccc3)c2-c2ccccc2)cc1,inhibition of growth at 100 µg/mL,[3],17 to 99%
Cn1c(-c2cccc(Cl)c2F)nc2cc(-c3nc(-c4ccc(Cl)cc4)no3)ccc21,Ratio,[5],2
same,Ratio,[6],4
same,MIC,[7],1.6 to 25 µg/mL
same,Ratio,[8],4
same,Ratio,[9],2
same,IC50,[10],> 500 µg/mL
CCc1nc2ccc(C)cc2n1CCCCNc1cccc(C(F)(F)F)c1,MIC,[4],0.056 to 2.6 µM
Cn1c(-c2cccc(Cl)c2F)nc2cc(-c3nc(Cc4cccc(Cl)c4)no3)ccc21,Ratio,[5],2
same,Ratio,[6],4
same,MIC,[7],1.6 to 25 µg/mL
same,Ratio,[8],4
same,Ratio,[9],2
same,IC50,[10],> 500 µg/mL
CCc1nc2ccc(C)cc2n1CCCCNc1ccccc1,MIC,[4],0.056 to 2.6 µM
CCCSc1nnc(-c2ncc([N+](=O)[O-])n2C)s1,MIC,[13],3.12 µg/mL
Nc1ccc(-c2nc3cc(-c4ccc5[nH]c(-c6ccc(N)cc6)nc5c4)ccc3[nH]2)cc1,MIC,[14],0.5 to 16 µg/mL
same,MIC,[15],0.5 to 16 µg/mL
O=C1/C(=C\c2ccccc2)SC(c2ccc(-n3ccnc3)cc2)N1Nc1ccccc1 (stereo not given),MIC,[16],14.3 to 49.7 µM
COc1ccc2c(c1)cc(-c1nc(-c3ccccc3)c(-c3ccccc3)n1-c1ccc(C)cc1)c1nnnn12,inhibition of growth at 100 µg/mL,[3],17 to 99%
COc1ccc(-c2cn(Cc3ccc(Cl)cc3Cl)cc2C(c2ccccc2)n2ccnc2)cc1 (stereo not given),MIC,[2],1 µg/mL
Cc1ccc(Oc2cc3[nH]c(Cn4ccnc4)nc3cc2F)cc1,MIC,[2],12.5 to 100 µg/mL
C[S+]([O-])c1nnc(-c2ncc([N+](=O)[O-])[nH]2)s1 (stereo not given),MIC,[11],1.56 µg/mL
same,selectivity ratio,[12],0.3 to 0.6
CCC[S+]([O-])c1nnc(-c2ncc([N+](=O)[O-])[nH]2)s1 (stereo not given),MIC,[11],1.56 µg/mL
same,selectivity ratio,[12],0.3 to 0.6
O=C(Cn1c(-c2cscn2)nc2ccccc21)Nc1cccc(Cl)c1,IC50,[1],3 to 10 µM
CCc1nc2ccc(C)cc2n1CCCSc1ccc(OC)cc1,MIC,[4],0.056 to 0.88 µM
CC1(C)CCc2c(c3ccccc3c3nc(-c4c[nH]c5ccccc45)[nH]c23)O1,MIC,[2],1.56 to 6.25 µg/mL
O=C(Cn1c(-c2cscn2)nc2ccccc21)Nc1ccc(Cl)cc1,IC50,[1],3 to 10 µM
O=C(Cn1c(-c2cscn2)nc2ccccc21)Nc1ccc(I)cc1,IC50,[1],3 to 10 µM
Fc1cc2nc(Cn3ccnc3)[nH]c2cc1Cl,MIC,[2],12.5 to 100 µg/mL
N#Cc1ccc(NC(=O)Cn2c(-c3cscn3)nc3ccccc32)cc1,IC50,[1],3 to 10 µM
Cc1ccccc1NC(=O)Cn1c(-c2cscn2)nc2ccccc21,IC50,[1],3 to 10 µM
CCc1nc2ccc(C)cc2n1CCCNc1ccc(OC)cc1,MIC,[4],0.056 to 0.88 µM
CCOc1ccc(-c2nc3ccc(-c4ccc5nc(-c6ccc(OCC)cc6)[nH]c5c4)cc3[nH]2)cc1,MIC,[14],0.5 to 16 µg/mL
same,MIC,[15],0.5 to 16 µg/mL
Fc1cc2nc(Cn3ccnc3)[nH]c2cc1-n1ccnc1,MIC,[2],12.5 to 100 µg/mL
NC(=O)c1cnccn1 [PYRAZINAMIDE],MIC,[7],3.12 µg/mL
